According to patent publication US10213415B2, “Compounds as opioid receptor modulators” (JANSSEN PHARMACEUTICA NV, priority 2004, dated 2019):

What was measured:
[1] = biological target: T1, delta opioid receptor (NG108-15 cell membranes) (Mus musculus, UniProt P32300); test: Delta Opioid Receptor Functional Assay: [35S]GTPγS Binding in NG108-15 Cell Membranes, Version 2; assay type: biochemical; conditions: NG108-15 cell membranes, version 2; for EC50: [35S]GTPγS, read-out: DOR GTP-binding Assay_v2_ EC50; for DOR GTP-binding Assay v2 (% I): % inhibition of agonist-stimulated GTPγS binding
T1 construct: NG108-15 cell membranes were purchased from Applied Cell Sciences (Rockville, Md.); host or cells: NG108-15 cells (membranes purchased)
T1 sequence (P32300 whole entry): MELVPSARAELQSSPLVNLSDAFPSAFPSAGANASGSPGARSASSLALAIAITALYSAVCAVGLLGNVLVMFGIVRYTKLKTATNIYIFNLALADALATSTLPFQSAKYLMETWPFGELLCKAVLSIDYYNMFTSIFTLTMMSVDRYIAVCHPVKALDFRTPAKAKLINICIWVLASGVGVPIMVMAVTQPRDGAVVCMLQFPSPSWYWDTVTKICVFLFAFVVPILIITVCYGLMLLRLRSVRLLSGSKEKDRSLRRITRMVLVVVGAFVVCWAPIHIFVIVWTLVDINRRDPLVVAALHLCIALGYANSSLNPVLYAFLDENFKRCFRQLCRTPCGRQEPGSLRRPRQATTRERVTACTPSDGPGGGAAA
Experimental: NG108-15 cell membranes were purchased from Applied Cell Sciences (Rockville, Md.). 8 mg/ml of membrane protein suspended in 10 mM TRIS-HC pH 7.2, 2 mM EDTA, 10% sucrose.
Membranes were maintained at 4-8° C. A portion (1 ml) of membranes was added into 10 ml cold binding assay buffer. The assay buffer contained 50 mM Tris, pH 7.6, 5 mM MgCl2, 100 mM NaCl, 1 mM DTT and 1 mM EGTA. The membrane suspension was homogenized with a Polytron for 2 times and centrifuged at 3000 rpm for 10 min. The supernent was then centrifuged at 18,000 rpm for 20 min. The pellet was saved in a tube and 10 ml assay buffer was added into the tube. The pellet and buffer were mixed with a Polytron.
The pellet membranes (75 μg/ml) were preincubated with SPA (10 mg/ml) at 25° C. for 45 min in the assay buffer. The SPA (5 mg/ml) coupled with membranes (37.5 μg/ml) was then incubated with 0.1 nM [^35S] GTPγS in the same Tris buffer containing 100 μM GDP in total volume of 200 μl. Increasing concentrations of receptor agonists were used to stimulate [^35S] GTPγS binding. The basal binding was tested in the absent agonists and no specific binding was tested in the present 10 μM unlabeled GTPγS. The data were analyzed on a Top counter.
[formula] % Inhibition=(% stimulation by 1 μM SNC80−% stimulation by 1 μM SNC80 in presence of test compound)×100/(% Stimulation by 1 μM SNC80−100) % of Basal=(stimulate−non specific)*100/(basal−non specific). EC50 values were calculated using GraphPad Prism.

delta opioid receptor = biological target: T2, delta opioid receptor (Rattus norvegicus, UniProt P33533); test: Rat Brain Delta Opioid Receptor Binding Assay ([3H]DPDPE); conditions: rat forebrain membranes, margin of error 10-20%, read-out: r Ki δ
T2 construct: from tissue; host or cells: forebrain of male Wistar rats
T2 sequence (P33533 whole entry): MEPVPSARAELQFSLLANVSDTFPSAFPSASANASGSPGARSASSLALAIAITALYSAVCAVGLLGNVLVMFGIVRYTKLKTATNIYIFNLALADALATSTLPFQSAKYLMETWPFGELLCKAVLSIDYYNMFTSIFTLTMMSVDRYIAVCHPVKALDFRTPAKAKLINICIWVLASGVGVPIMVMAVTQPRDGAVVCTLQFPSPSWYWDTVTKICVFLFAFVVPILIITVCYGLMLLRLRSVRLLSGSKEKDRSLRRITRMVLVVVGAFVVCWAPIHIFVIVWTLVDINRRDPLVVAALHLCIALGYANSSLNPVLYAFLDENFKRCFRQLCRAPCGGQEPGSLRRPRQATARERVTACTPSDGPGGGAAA
Experimental: Male, Wistar rats (150-250 g, VAF, Charles River, Kingston, N.Y.) are killed by cervical dislocation, and their brains removed and placed immediately in ice cold Tris HCl buffer (50 mM, pH 7.4). The forebrains are separated from the remainder of the brain by a coronal transection, beginning dorsally at the colliculi and passing ventrally through the midbrain-pontine junction. After dissection, the forebrains are homogenized in Tris buffer in a Teflon® glass homogenizer. The homogenate is diluted to a concentration of 1 g of forebrain tissue per 80 mL Tris and centrifuged at 39,000×g for 10 min. The pellet is resuspended in the same volume of Tris buffer containing 5 mM MgCl2 with several brief pulses from a Polytron homogenizer. This particulate preparation is used for the delta opioid binding assays. Following incubation with the delta selective peptide ligand ˜4 nM [^3H]DPDPE at 25° C. for 2.5 h in a 96-well plate with total volume of 1 mL, the plate contents are filtered through Wallac filtermat B sheets on a Tomtec 96-well harvester. The filters are rinsed three times with 2 mL of 10 mM HEPES (pH 7.4), and dried in a microwave oven 2 min twice. To each sample area 2×50 μL of Betaplate Scint scintillation fluid (LKB) is added and analyzed on a LKB (Wallac) 1205 BetaPlate liquid scintillation counter.
The data are used to calculate either the % inhibition compared to control binding (when only a single concentration of test compound is evaluated) or a Ki value (when a range of concentrations is tested). % inhibition is calculated as: [(total dpm−test compound dpm)/(total dpm−nonspecific dpm)]*100. Kd and Ki values were calculated using GraphPad PRISM data analysis program.

mu opioid receptor = biological target: T3, mu opioid receptor (Rattus norvegicus, UniProt P33535); test: Rat Brain Mu Opioid Receptor Binding Assay (and Version 2a, [3H]DAMGO); conditions: rat forebrain membranes, margin of error 10-20%, read-out: r Ki μ
T3 construct: from tissue; host or cells: forebrain of male Wistar rats
T3 sequence (P33535 whole entry): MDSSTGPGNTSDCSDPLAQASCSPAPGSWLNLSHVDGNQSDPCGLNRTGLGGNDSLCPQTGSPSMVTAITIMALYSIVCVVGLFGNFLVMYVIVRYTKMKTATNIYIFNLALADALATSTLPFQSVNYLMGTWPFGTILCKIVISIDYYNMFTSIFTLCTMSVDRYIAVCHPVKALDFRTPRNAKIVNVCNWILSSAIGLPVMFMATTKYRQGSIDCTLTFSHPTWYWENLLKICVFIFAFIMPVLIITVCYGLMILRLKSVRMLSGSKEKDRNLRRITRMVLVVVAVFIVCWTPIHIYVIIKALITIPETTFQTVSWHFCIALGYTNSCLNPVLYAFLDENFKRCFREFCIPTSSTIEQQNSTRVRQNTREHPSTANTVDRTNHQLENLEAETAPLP
Summary of the method: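 Rat forebrain membranes from male Wistar rats in 50 mM Tris-HCl pH 7.4 with 5 mM MgCl2 incubated with 0.8 nM [3H]DAMGO for 2.5 h at 25° C., then filtered and counted. Data given as % inhibition of specific binding at single concentrations or as Ki from concentration series.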

human mu opioid receptor = biological target: T4, human mu opioid receptor (Homo sapiens, UniProt P35372); test: Human Mu Opioid Receptor Binding Assay (CHO membranes, 3H-Damgo); conditions: read-out: hKi μ
T4 construct: purchased Perkin Elmer RBHOMM400UA; host or cells: Chinese Hamster Ovary cells (recombinant expression)
T4 sequence (P35372 whole entry): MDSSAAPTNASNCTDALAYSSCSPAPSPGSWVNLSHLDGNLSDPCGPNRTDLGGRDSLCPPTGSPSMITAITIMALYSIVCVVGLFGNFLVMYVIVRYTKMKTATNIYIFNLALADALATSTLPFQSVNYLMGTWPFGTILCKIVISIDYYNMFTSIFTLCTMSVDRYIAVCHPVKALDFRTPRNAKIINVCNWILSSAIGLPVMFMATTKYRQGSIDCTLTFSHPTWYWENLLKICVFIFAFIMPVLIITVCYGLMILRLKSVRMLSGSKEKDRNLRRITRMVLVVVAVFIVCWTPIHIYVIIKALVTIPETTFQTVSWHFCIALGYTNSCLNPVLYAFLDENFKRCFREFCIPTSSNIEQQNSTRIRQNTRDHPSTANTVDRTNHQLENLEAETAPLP
Summary of the method: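 Membranes from CHO cells expressing human mu opioid receptor, 300 μg/mL, in 50 mM Tris pH 7.5, 5 mM MgCl2. Incubated with compound and ³H-Damgo (3.6 nM before mixing) for 2 h at room temperature, filtered, counted by scintillation. Nonspecific binding with 1 μM unlabelled Damgo.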

[2] = biological target: T5, mu opioid receptor (CHO-hMOR cell membranes) (Homo sapiens, UniProt P35372); test: Mu Opioid Receptor Functional Assay: [35S]GTPγS Binding in CHO-hMOR Cell Membranes, Versions 1 and 2; assay type: biochemical; conditions: for MOR GTP binding assay_v2 (% I): version 2, % inhibition of agonist-stimulated GTPγS binding; for EC50: version 2, read-out: MOR GTP binding assay v2 EC50
T5 construct: purchased Receptor Biology, Inc. (Baltimore, Md.); host or cells: CHO cells (recombinant expression)
T5 sequence (P35372 whole entry): as above
Summary of the method: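 CHO-hMOR membranes (10 μg/ml) on WGA SPA beads, preincubated 45 min at 25 °C, then incubated with 0.5 nM [35S]GTPγS in HEPES pH 7.6, 5 mM MgCl2, 100 mM NaCl, 1 mM DTT, 1 mM EDTA. Non-specific binding with 10 μM unlabeled GTPγS; agonist EC50 from concentration-response, antagonism as inhibition of 1 μM SNC80-stimulated binding.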

[3] = biological target: T6, human delta subtype 2 opioid receptor (Homo sapiens, UniProt P41143); test: Human Delta Opioid Receptor Binding Assay (CHO membranes, 3H-Naltrindole); conditions: read-out: hKi δ
T6 construct: purchased Perkin Elmer RBHODM400UA; host or cells: Chinese Hamster Ovary cells (recombinant expression)
T6 sequence (P41143 whole entry): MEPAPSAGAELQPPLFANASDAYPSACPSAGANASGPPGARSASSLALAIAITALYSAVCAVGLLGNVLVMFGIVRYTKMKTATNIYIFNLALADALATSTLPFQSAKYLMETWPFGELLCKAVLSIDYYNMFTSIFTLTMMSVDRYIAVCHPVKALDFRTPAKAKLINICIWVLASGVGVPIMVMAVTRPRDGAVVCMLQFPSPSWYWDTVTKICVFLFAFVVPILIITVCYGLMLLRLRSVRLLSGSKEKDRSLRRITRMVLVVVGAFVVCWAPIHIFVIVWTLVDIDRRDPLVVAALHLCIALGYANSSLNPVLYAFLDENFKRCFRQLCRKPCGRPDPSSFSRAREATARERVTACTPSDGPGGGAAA
Summary of the method: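 Filtration binding on CHO-cell membranes expressing the human receptor, in 50 mM Tris pH 7.5 with 5 mM MgCl2, 30 min at room temperature; 3H-naltrindole diluted to 6 nM before mixing 1:1 with compound. Nonspecific binding defined with 1 μM unlabelled naltrindole; inhibition relative to no-inhibitor wells.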

Structure (SMILES) | EC50 [1] | DOR GTP-binding Assay v2 (% I) [1] | Ki (delta opioid receptor) | Ki (mu opioid receptor) | Ki (human mu opioid receptor) | MOR GTP binding assay_v2 (% I) [2] | EC50 [2] | Ki [3]
Cc1cc(O)cc(C)c1C[C@H](N)C(=O)N(Cc1ccc(OC(F)(F)F)cc1)[C@@H](C)c1nc(-c2ccccc2)c[nH]1 [Cpd 248] | 15 nM | 31.72% | 0.44 nM | 0.11 nM | – | – | – | –
COc1ccc(CN(C(=O)[C@@H](N)Cc2c(C)cc(C(N)=O)cc2C)[C@@H](C)c2nc(-c3ccccc3Br)c[nH]2)cc1C(=O)O [Cpd 290] | > 10000 nM | 52.41% | 0.69 nM | 0.43 nM | – | – | – | –
COc1ccc(CN(C(=O)[C@@H](N)Cc2c(C)cc(C(N)=O)cc2C)[C@@H](C)c2nc(-c3ccc(Br)cc3)c[nH]2)cc1C(=O)O [Cpd 291] | > 10000 nM | 96.52% | 0.12 nM | 0.47 nM | – | – | – | –
COC(=O)c1cc(CN(C(=O)[C@@H](N)Cc2c(C)cc(C(N)=O)cc2C)[C@@H](C)c2nc(-c3ccccc3)c[nH]2)ccn1 [Cpd 311] | 1.02 nM | 41.00% | – | – | – | – | – | –
COc1cc(CN(C(=O)[C@@H](N)Cc2c(C)cc(C(N)=O)cc2C)[C@@H](C)c2nc(-c3ccccc3)c[nH]2)ccc1C(=O)O [Cpd 14] | 0.6 nM | 59.70% | 0.36 nM | – | 4.7 nM | – | – | –
COC(=O)c1cccc(CN(C(=O)[C@@H](N)Cc2c(C)cc(C(N)=O)cc2C)[C@@H](C)c2nc(-c3ccccc3)c[nH]2)n1 [Cpd 313] | 5.03 nM | 49% | – | – | – | 29.00% | 50.6 nM | –
Cc1cc(C(N)=O)cc(C)c1C[C@H](N)C(=O)N(Cc1ccccc1C(=O)O)[C@@H](C)c1nc(-c2ccccc2)c[nH]1 [Cpd 226] | > 10000 nM | 19.71% | 48 nM | – | 7.91 nM | – | – | –
CCOc1cccc(CN(C(=O)[C@@H](N)Cc2c(C)cc(O)cc2C)[C@@H](C)c2nc(-c3ccccc3)c[nH]2)c1 [Cpd 251] | 18 nM | 53.94% | 0.26 nM | 0.08 nM | – | – | – | –
COC(=O)c1ccc(CN(C(=O)[C@@H](N)Cc2c(C)cc(O)cc2C)[C@@H](C)c2nc(-c3ccccc3)c[nH]2)o1 [Cpd 286] | 2.6 nM | 34.65% | 0.11 nM | 0.05 nM | – | – | – | –
COc1ccc(CN(C(=O)[C@@H](N)Cc2c(C)cc(O)cc2C)[C@@H](C)c2nc(-c3ccccc3)c[nH]2)c2ccccc12 [Cpd 247] | 44 nM | 41.89% | 0.4 nM | 0.61 nM | – | – | – | –
Cc1cc(C(N)=O)cc(C)c1C[C@H](N)C(=O)N(Cc1ccc(C(=O)O)nc1)[C@@H](C)c1nc(-c2ccccc2)c[nH]1 [Cpd 254] | 6.27 nM | 62.00% | – | – | – | 42.00% | 316 nM | –
COC(=O)c1ccc(CN(C(=O)[C@@H](N)Cc2c(C)cc(C(N)=O)cc2C)[C@@H](C)c2nc(-c3ccccc3)c[nH]2)cn1 [Cpd 255] | 13.1 nM | 54.00% | – | – | – | 33.00% | 3.48 nM | –
COc1ccc(CN(C(=O)[C@@H](N)Cc2c(C)cc(C(N)=O)cc2C)[C@@H](C)c2nc(-c3cccc(Br)c3)c[nH]2)cc1C(=O)O [Cpd 288] | > 10000 nM | 74.54% | 0.17 nM | 0.43 nM | – | – | – | –
COc1ccc(CN(C(=O)[C@@H](N)Cc2c(C)cc(C(N)=O)cc2C)[C@@H](C)c2nc(-c3cccc(C(=O)O)c3)c[nH]2)cc1OC [Cpd 20] | > 10000 nM | 78.74% | – | – | 63 nM | – | – | –
COC(=O)c1ccc(CN(C(=O)[C@@H](N)Cc2c(C)cc(C(N)=O)cc2C)[C@@H](C)c2nc(-c3ccccc3)c[nH]2)nc1 [Cpd 252] | 32.1 nM | 66.00% | – | – | – | 24.00% | 4.15 nM | –
Cc1cc(O)cc(C)c1C[C@H](N)C(=O)N(Cc1ccc(OC(C)C)cc1)[C@@H](C)c1nc(-c2ccccc2)c[nH]1 [Cpd 250] | 10 nM | 34.93% | 0.21 nM | 0.06 nM | – | – | – | –
Cc1cc(O)cc(C)c1C[C@H](N)C(=O)N(Cc1ccc(C(F)(F)F)cc1)[C@@H](C)c1nc(-c2ccccc2)c[nH]1 [Cpd 249] | 8 nM | 20.14% | 0.18 nM | 0.12 nM | – | – | – | –
COC(=O)c1ccc(CN(C(=O)[C@@H](N)Cc2c(C)cc(C(N)=O)cc2C)[C@@H](C)c2nc(-c3ccccc3)c[nH]2)cc1 [Cpd 51] | 27 nM | 66.04% | – | – | 2.7 nM | – | – | 113 nM
Cc1cc(C(N)=O)cc(C)c1C[C@H](N)C(=O)N(Cc1ccc(C(=O)O)cn1)[C@@H](C)c1nc(-c2ccccc2)c[nH]1 [Cpd 253] | 1.35 nM | 52.00% | – | – | – | 28.00% | 251 nM | –
